“Also recorded” adds a separate entry of the source.
Columns and labels:
HNSCC-Zelllinien = assay: MTT assay: vitality and proliferation of HNSCC cell lines, 250 h culture; type: cell-based, human
Text: (§1) Die Zellproliferation wird mittels eines quantitativen kolorimetrischen 3-(4,5-Dimethylthiazol-2-yl)-2,5-diphenyltetrazoliumbromid-basierten (MTT) Zelltests bestimmt. Dieser Test bestimmt die Anzahl der lebensfähigen Zellen auf Basis der mitochondrialen Konversion von MTT.
(§2) Dazu werden 5.000 Zellen in jedes Well einer 96-Well-Platte verteilt. Nach 24 Stunden Kultivierung werden vier verschiedene Konzentrationen von 5-Fluoruracil oder Cisplatin zu den Kulturen hinzugefügt oder die Zellen werden mit drei Dosen bestrahlt. Nach 48 Stunden werden in jedes Well 10 µl MTT-Farbstoff (5 mg/ml) zugefügt. Nach zwei Stunden Inkubation mit MTT wurden die Kristalle gelöst und vorsichtig für 24 Stunden bei Raumtemperatur geschüttelt. Mithilfe eines Multi-Well-ELISA-Lesegeräts wird die Absorption der reduzierten Formazan-Produkte in Kontrolle und Proben-Wells bei einer Welle von 570 nm und 690 nm bestimmt. Alle Wachstumsproben des MTT-Tests werden in dreifacher Ausführung ausgeführt.
(§3) Es werden weiterführende Untersuchungen durchgeführt zur Analyse des Einflusses von Cineol auf die Vitalität und Proliferation verschiedener permanenter Zelllinien. Hierzu werden einerseits die zwei HNSCC-Zelllinien und des Weiteren eine Fibroblastenzelllinie verwendet. Diese werden über einen Zeitraum von 250 Stunden mit verschiedenen Cineol-Konzentrationen kultiviert (1 mM bis 10 mM) und die Vitalität der Zellen wird jeweils mittels eines MTT-Assays untersucht.

HNSCC-Zellen = assay: MTT test: proliferation and viability of HNSCC cells, 288 h incubation; type: cell-based, human; settings: 700 µM, MTT (Fig. 5)
Text: as §1, §2
Dosisabhängige Inhibition der Proliferation von HNSCC durch 1,8-Cineol Um zu bestimmen, ob die Behandlung mit 1,8-Cineol zu einer Inhibition der zellulären Lebensfähigkeit von HNSCC führt, werden MTT-Tests durchgeführt. Zu diesem Zweck werden die Zellen für 288 Stunden in 300 µM bzw. 700 µM Cineol inkubiert.

Fibroblastenzelllinie = assay: MTT assay: vitality and proliferation of a fibroblast cell line, 250 h culture; type: cell-based
Text: as §1, §2, §3

Wnt11 [1] = assay: RT2 EMT Profiler PCR array: Wnt11 mRNA level in HNSCC cell lines; type: cell-based, human; settings: 100 µM, HNSCC cell lines (Fig. 4A)
Text: PCR-Test zur humanen epithelial-mesenchymalen Transition (EMT) Mit dem "Human Epithelial to Mesenchymal Transition (EMT) RT^2 Profiler™ PCR Array" wird die Expression von 84 Schlüsselgenen, welche ihre Expression während dieses Prozesses verändern oder die Expression von sich verändernden Genen regulieren, festgestellt. Der Test umfasst für Zelloberflächenrezeptoren, extrazelluläre Matrix und das Zytoskelett kodierende Gene, Gene, welche Zelladhäsion, Migration, Motilität und Morphogenese steuern; sowie Gene für Signaltransduktion und Transkriptionsfaktoren, welche die EMT sowie die damit assoziierten Prozesse bedingen.
Weiterhin werden im Hinblick auf die Wnt/β-Catenin-Signalgebung aufgrund ihrer Involvierung in die Regulation der epithelial-mesenchymalen Transition (EMT) die transkriptionellen Profile verschiedener Gene, welche in Zusammenhang mit EMT stehen, in Reaktion auf 1,8-Cineol untersucht. Dafür wird der PCR-basierte "RT^2 EMT Profiler" eingesetzt, welcher die umfassende Analyse von 84 verschiedenen, in Zusammenhang mit EMT stehenden Genen erlaubt.

[2] = system: GSK-3α/β (Tyrosin-279/-216); assay: Western blot: phospho-GSK-3α/β at Tyr-279/-216 in HNSCC cell lines; type: cell-based, human; settings: 100 µM, HNSCC cell lines (Fig. 1C)
Procedure: (§4) Die im Rahmen der vorliegenden Erfindung untersuchten adhärenten humanen Kopf-Hals-Plattenepithel-Karzinom-Zelllinien (UT-SCC16A, UT-SCC-16B, UT-SCC-60A und UT-SCC-60B) werden in "Dulbecco's Modifiziertem Eagle's Medium" (DMEM, 4,5 g/l D-Glucose und L-Glutamin), welches mit 10 % fötalem Rinderserum (FBS) (beide Life Technologies, Carlsbad, CA, USA), 1 % Natriumpyruvat (PAN-Biotech, Aidenbach, Deutschland) und 1 % Antibiotika (10.000 U/ml Penicillin, 10.000 µg/ml Streptomycin) (Biochrom, Berlin, Deutschland) supplementiert ist, bei 37 °C unter 5 % CO2 und 95 % LuftAtmosphäre gelagert.
(§5) Anti-Phospho-GSK-3α/β-Antikörper (Serin-21/-9) (#9331) und Anti-GAPDH-Antikörper (#2118) werden über Cell Signaling Technology (Danvers, MA, USA) bezogen. Beide Antikörper werden in einer […]-Verdünnung in TBS mit 3 % BSA (PAA Laboraties, Pasching, Österreich) verwendet. Anti-Phospho-GSK-3a/β-Antikörper (Y279/Y216) (#ab6847) werden von Abcam (Cambridge, UK) erhalten und in einer 1 : 1.000-Verdünnung in TBS mit 3 % BSA verwendet. Der gegen aktives-β-Catenin gerichtete Antikörper (#05-665) wird über Merck Milipore (Billerica, MA, USA) bezogen und in einer Verdünnung von 1 : 2.000 in TBS und 3 % Milchpulver (Carl Roth, Karlsruhe, Deutschland) verwendet. […]

P-Akt (Threonin-308) = assay: Western blot: Akt phosphorylation at Thr-308 in HNSCC cell lines; type: cell-based, human; settings: 100 µM, HNSCC cell lines (Fig. 3)
Procedure: as §4
(§6) Die Zellen werden zweimal in eiskaltem PBS gewaschen und anschließend in RIPA-Puffer (Cell Signaling Technology, Danvers, MA, USA) mit Aprotinin, Pepstatin A, Protease Inhibitor Cocktail und Phenylmethansulfonylfluorid (Sigma-Aldrich, St. Louis, MO, USA) für 1,5 Stunden lysiert. Durch Zentrifugation (13.000 rpm, 4 °C, 10 Minuten) werden Zelltrümmer entfernt. Die Proteinkonzentration wird mittels des Bradford-Tests mit einfach konzentriertem Quick StartTM Dye Reagent (Bio-Rad Laboratories, Hercules, CA, USA) bestimmt. Es wird vierfach konzentrierter SDS-Probenpuffer hinzugefügt, und die Proben werden für 5 Minuten bei 95 °C denaturiert. Äquivalente Proteinmengen (30 µg) werden mittels SDS-PAGE in einem 10 % Polyacrylamidgel aufgetrennt und mittels Immunoblot auf Nitrocellulosemembranen übertragen. […]

aktivem β-Catenin = assay: Western blot of whole-cell protein: expression level of active β-catenin in HNSCC cell lines; type: cell-based, human; settings: 24 h incubation, 100 µM, versus medium control (Fig. 1A)
Procedure: as §4, §5

[3] = system: Phospho-GSK-3 (Serin-9/-21); assay: Immunohistochemistry: subcellular (endolysosomal) localisation of phospho-GSK-3; type: cell-based, human; settings: 100 µM, versus control medium (Fig. 2)
Procedure: Zur Detektion von […] innerhalb der Tumorzellen wird eine immunohistochemische Methode eingesetzt. Die Zellen werden 24 Stunden vor der Behandlung mit 100 µM Cineol in 4-Well-Kammerobjektträgern (Sarstadt AG, Numbrecht, Deutschland) überführt. Nach der Inkubation wurde das Medium entfernt und die Zellen wurden zweimal in PBS gewaschen. Zur intrazellulären Färbung wurden die Zellen mit 0,1 % Triton-X-100 (Sigma-Aldrich Chemie GmbH, Steinheim) in PBS fixiert. Der spezifische primäre Antikörper Anti-Phospho-GSK-3α/β (Serin-21/-9) (#9331) (Cell Signaling, Danvers, MA, USA) wird mit einem Antikörper-Verdünnungspuffer, welcher Blocking-Puffer (DCS LabLine, DCS, Hamburg, Deutschland) enthält, auf 1 : 50 verdünnt und in einer luftbefeuchteten Kammer für 1 Stunde bei Raumtemperatur (RT) inkubiert. Nach Waschen mit PBS wird der zweite Antikörper Ziege-anti-Maus FITC (Jackson ImmunoResearch Laboratories, West Grove, USA) in einer Verdünnung von 1 : 100 für 45 Minuten inkubiert. Die Zellen werden dreimal mit PBS gespült. Die Zellkerne werden für 1 Minute unter Einsatz von DAPI (1 µg/ml, Roche Diagnostics, Mannheim, Deutschland) gefärbt. Die Proben werden dreimal für 5 Minuten mit PBS gespült und anschließend in Fluoromount G (Southern Biotechnologies Associates, Birmingham, Alabama, USA) eingebettet. […]

Wnt11 [4] = assay: Western blot: Wnt11 protein expression in HNSCC cell lines; type: cell-based, human
Procedure: Die Zellen werden zweimal in eiskaltem PBS gewaschen und anschließend in RIPA-Puffer (Cell Signaling Technology, Danvers, MA, USA) mit Aprotinin, Pepstatin A, Protease Inhibitor Cocktail und Phenylmethansulfonylfluorid (Sigma-Aldrich, St. Louis, MO, USA) für 1,5 Stunden lysiert. Durch Zentrifugation (13.000 rpm, 4 °C, 10 Minuten) werden Zelltrümmer entfernt. Die Proteinkonzentration wird mittels des Bradford-Tests mit einfach konzentriertem Quick StartTM Dye Reagent (Bio-Rad Laboratories, Hercules, CA, USA) bestimmt. Es wird vierfach konzentrierter SDS-Probenpuffer hinzugefügt, und die Proben werden für 5 Minuten bei 95 °C denaturiert. Äquivalente Proteinmengen (30 µg) werden mittels SDS-PAGE in einem 10 % Polyacrylamidgel aufgetrennt und mittels Immunoblot auf Nitrocellulosemembranen übertragen. Für die Proteinextraktion aus Geweben werden die Gewebe zunächst in 500 µl RIPA-Puffer mit Protease-Inhibitoren unter Einsatz des TissueLyser LT (Qiagen, Hilden, Deutschland) homogenisiert, anschließend inkubiert und wie zuvor beschrieben zentrifugiert.
Die Membranen werden mit TBS, enthaltend 3 % BSA oder 3 % Milchpulver, für 1 Stunde bei Raumtemperatur geblockt und anschließend mit dem primären Antikörper über Nacht bei 4 °C inkubiert. Nach einem Waschschritt mit TBS werden die Membranen mit dem speziesspezifischen sekundären Antikörper für 1 Stunde bei Raumtemperatur inkubiert. Die Proteinbanden werden unter Einsatz von Amersham™ ECL™ Primer Western Blotting Detection Reagent (GE Healthcare, Chalfont St Giles, Buckinghamshire, UK) und Fusion-FX7 sowie der korrespondierenden Software Fusion Bio-1D V12.14 (Vilber-Lourmat, Eberhardzell, Deutschland) nach ausgiebigem Waschen visualisiert. Die Nitrozellulosemembranen werden über Nacht bei 4 °C mit einem GAPDH-Antikörper inkubiert, um die Beladung jeder Spur zu bestimmen. Die Membranen werden nochmals gewaschen und mit dem sekundären Antikörper und ECL Detektionsreagenz inkubiert. […]

Akt = assay: Western blot: Akt expression in HNSCC cell lines; type: cell-based, human; settings: 100 µM, HNSCC cell lines (Fig. 3)
Procedure: as §4, §6

[5] = system: phosphoryliertem GSK-3α/β (Serin-9/-21); assay: Western blot: phosphorylation level of GSK-3α/β at Ser-9/-21 in HNSCC cell lines; type: cell-based, human; settings: 100 µM, HNSCC cell lines (Fig. 1B)
Procedure: as §4, §5

[6] = from a concentration of 1mM to 2mM

## CC12CCC(CC1)C(C)(C)O2 [1,8-Cineol, 1,3,3-Trimethyl-2-oxabicyclo[2.2.2]octan]
HNSCC-Zelllinien; 1 mM to 10 mM
  Einfluss auf die Progression und Vitalität von HNSCC: inhibierender Einfluss
HNSCC-Zelllinien; 10mM
  zytotoxische Wirkung: deutlich zytotoxische Wirkung
HNSCC-Zelllinien; [6]
  proliferationshemmende Wirkung: starke proliferationshemmende Wirkung
HNSCC-Zellen
  Proliferation und zelluläre Lebensfähigkeit von HNSCC-Zellen: stark verringerte zelluläre Lebensfähigkeit
HNSCC-Zellen; listed as Cineol
  Proliferation und zelluläre Lebensfähigkeit von HNSCC-Zellen: starker Rückgang der Proliferation und zellulären Lebensfähigkeit
Fibroblastenzelllinie; 1 mM to 10 mM
  Einfluss auf die Progression und Vitalität von Fibroblasten: inhibierender Einfluss
Fibroblastenzelllinie; 10mM
  zytotoxische Wirkung: deutlich zytotoxische Wirkung
Fibroblastenzelllinie; [6]
  proliferationshemmende Wirkung: starke proliferationshemmende Wirkung
Wnt11 [1]
  mRNA-Level von Wnt11: starken Rückgang der mRNA-Level von Wnt11
[2]
  Expressionslevel von GSK-3α/β (Tyrosin-279/-216): nicht nennenswert beeinflusst
P-Akt (Threonin-308)
  Phosphorylierung von Threonin-308 von Akt: Weder die Expression noch die Phosphorylierung von Threonin-308 von Akt wird in den analysierten Zelllinien nennenswert beeinflusst
Aktivem β-Catenin
  Expressionslevel von aktivem β-Catenin: starke Abnahme von aktivem β-Catenin
[3]
  endolysosomale Lokalisation von GSK-3: Rückgang der endolysosomalen Lokalisation von Phospho-GSK-3 (Serin-9/-21); also recorded: verringerte endolysosomale Lokalisation von GSK-3
Wnt11 [4]; cell lines 16A, SCC154, 60B and Carey24, 24 h, 1mM
  Proteinexpression von Wnt11: starke Herunterregulation von Wnt11
Wnt11 [4]; cell lines 16B and 60A, 24 h, 1mM
  Wnt11 Proteinexpression: Rückgang der Wnt11 Proteinexpression, auch wenn dieser geringer ist
Wnt11 [4]; dose dependence, six HNSCC cell lines (Fig. 4B)
  Proteinexpression von Wnt11: dosisabhängig in Reaktion auf 1,8-Cineol abnimmt
Akt
  Expression von Akt: Weder die Expression noch die Phosphorylierung von Threonin-308 von Akt wird in den analysierten Zelllinien nennenswert beeinflusst
[5]
  Level von bzw. Gehalt an phosphoryliertem GSK-3α/β (Serin-9/-21): verringerten Level von bzw. Gehalt an phosphoryliertem GSK-3α/β (Serin-9/-21)
